Test results as given in US20240374750A1, “LINKER COMPOUND AND COMPLEX COMPOUND CONTAINING SAME” (TOHOKU UNIVERSITY, priority 2021, published 2024).

How the values were obtained:
Assay type in all cases: physicochemical
[1] = Reductive cleavage reaction with LiBH4 in THF traced by UV spectrum (Test Example 2); settings: 45 μM in THF, 11 equivalents LiBH4, absorption at 242 nm
Protocol: The control of the electron density of the S atom by the substituent was expected from the above NMR results, and thus, a reductive cleavage reaction of the thiophenol-type disulfide linker was actually examined. First, a reaction of a thiophenol derivative model compound (compound of formula (2)) with a reducing agent LiBH4 in an organic solvent THF was carried out as a model reaction (formula (12)) using a UV spectrum which can be easily examined, and a pseudo-first order reaction rate was examined.
As the THF, THF available from Wako Pure Chemical Industries, Ltd., product code 207-17765, super dehydrated, and stabilizer-free was used, and as the cell, a cell of 10 mm×10 mm was used. A reduction reaction of an oxidized form (disulfide) of the compound of the formula (2), which is an unsubstituted model compound, was carried out in the cell. The reaction was carried out using an excess amount (11 equivalents) of LiBH4 relative to the oxidized form of the compound of the formula (2) (45 μM in THF). LiBH4 was adjusted by diluting a commercially available THF 2M solution and used in the reaction.

[2] = Cleavage reaction under cancer cell model condition, NMR (Test Examples 6 and 9)
Protocol: At a concentration of ArS—SrA (H) of the formula (7) (225 μM) assuming a realistic intracellular drug concentration, a GSH concentration of a cancer cell was approximated to 20 mM, and the same measurement was performed.
(§1) To prevent a peak of the aromatic region having a low concentration from being overlapped by the peak of CHCl3 contained in CDCl3, the measurement was performed with D2O in the outside the double tube. The overall compound concentration was low and the peak ratio of water was high, and thus, the number of times of integration was increased for measurement to distinguish between the peaks of the compounds and the peak of the baseline.
ArSSrA (F) and ArSSrA (NO2) were subjected to the same test as in Test Example 6 to examine their cleavage reactions in the normal cell model and the cancer cell model. The results of ArSSrA (F) and ArSSrA (NO2) are shown in Table 6 and Table 7, respectively.

[3] = Reductive cleavage reaction of F- and NO2-substituted products, NMR (Test Examples 7 and 8); settings: same conditions as in Test Example 5
[4] = Reductive cleavage reaction with GSH in mixed system, NMR (Test Example 4); settings: ArSSrA (H)/GSH=4.4 mM/4.5 mM, 50 mM phosphate buffer
Protocol: As NMR spectrum measurement conditions, GSH of the formula (13) was added to ArSSrA (H) of the formula (7) in a 50 mM phosphate buffer to adjust a solution of ArSSrA (H)/GSH=4.4 mM/4.5 mM, and the measurement by NMR was carried out. A double tube (SHIGEMI Co., Ltd., Model SP-405) was used and a TMS-containing CDCl3 solution (LOCK solvent) was placed in the outside to adjust an NMR tube.
In the NMR measurement, the water elimination (presaturation method) measurement was performed with reference to Casi, G. et al., J. Controlled Release. 2012, 161, 121, 422 to 428, and the like.
(Initial concentration ArSSrA (H)/GSH=4.4 mM/4.5 mM)

[5] = Cleavage reaction under normal cell model condition, NMR (Test Example 5); settings: ArS—SrA 225 μM, GSH 450 μM (normal cell model)
Protocol: ArS—SrA (H) of the formula (7) was administered to a cell model of a GSH concentration assuming a realistic intracellular drug concentration to examine the cleavage reaction of the linker compound.
as §1, with “At an ArS—SrA (H) concentration (225 μM), the GSH concentration of a normal cell was approximated to 450 μM, and the same measurement was performed. To” for “To”, “in” for “in the”

[6] = ArS—SrA 225 μM, GSH 20 mM (cancer cell model), 100 min.
[7] = ArS—SrA 225 μM, GSH 20 mM (cancer cell model), 100 minutes
[8] = ArS—SrA 225 μM, GSH 20 mM (cancer cell model), 1 day

In the case of c1ccc(SSc2ccccc2)cc1 [formula (2)], the “pseudo first order reaction rate constant k” value [1] is reported as 1.97×10^−2.
In the case of O=C(O)c1cc(SSc2ccc([N+](=O)[O-])c(C(=O)O)c2)ccc1[N+](=O)[O-] [ArSSrA (NO2)], the “ArS—SrA abundance ratio (remaining disulfide)” value ([2]; 100 min, 225 μM) is reported as 5%, the “ArS—SrA abundance ratio (remaining disulfide)” value ([2]; 24 h, 225 μM) is reported as 0% and the ArSH abundance ratio [2, 6] is reported as 95%. For the same molecule, the “ArS—SG abundance ratio (1st ArS—SG column)” value [2, 6] was 0%, the “ArS—SG abundance ratio (2nd ArS—SG column)” value [2, 6] was 0% and the GSH abundance ratio [2, 6] was 95%. For the same molecule, the “GS—SG abundance ratio” value [2, 6] was 4%, the “linker disulfide cleaved (dissociated)” value [2, 7] was “about 90%” and the ArSH abundance ratio [2, 8] was 100%. For the same molecule, the “ArS—SG abundance ratio (1st ArS—SG column)” value [2, 8] was 0%, the “ArS—SG abundance ratio (2nd ArS—SG column)” value [2, 8] was 0% and the GSH abundance ratio [2, 8] was 90%. For the same molecule, the “GS—SG abundance ratio” value [2, 8] was 10%, the “linker disulfide cleaved (dissociated)” value [2, 8] was “all” and the ArSH abundance ratio ([3]; 100 min.) was 51%. For the same molecule, the “ArS—SG abundance ratio (1st ArS—SG column)” value ([3]; 100 min.) was 20%, the “ArS—SG abundance ratio (2nd ArS—SG column)” value ([3]; 100 min.) was 39% and the “ArS—SrA abundance ratio (remaining disulfide)” value ([3]; 100 min.) was 29%. For the same molecule, the GSH abundance ratio ([3]; 100 min.) was 30%, the “GS—SG abundance ratio” value ([3]; 100 min.) was 9% and the ArSH abundance ratio ([3]; 1 day) was 48%. The “ArS—SG abundance ratio (1st ArS—SG column)” value ([3]; 1 day) was 22%, the “ArS—SG abundance ratio (2nd ArS—SG column)” value ([3]; 1 day) was 45% and the GSH abundance ratio ([3]; 1 day) was 4%. For the same molecule, the “GS—SG abundance ratio” value ([3]; 1 day) was 26%.
For O=C(O)c1ccccc1SSc1ccccc1C(=O)O [ArSSrA (H)], the ArSH abundance ratio [2, 6] was 82%, the “ArS—SG abundance ratio (1st ArS—SG column)” value [2, 6] was 0% and the “ArS—SG abundance ratio (2nd ArS—SG column)” value [2, 6] was 0%. For the same molecule, the “ArS—SrA abundance ratio (remaining disulfide)” value [2, 6] was 19%, the GSH abundance ratio [2, 6] was 97% and the “GS—SG abundance ratio” value [2, 6] was 3.4%. The “linker disulfide cleaved (dissociated)” value [2, 7] was 82%, the ArSH abundance ratio [2, 8] was 100% and the “ArS—SG abundance ratio (1st ArS—SG column)” value [2, 8] was 0%. For the same molecule, the “ArS—SG abundance ratio (2nd ArS—SG column)” value [2, 8] was 0%, the “ArS—SrA abundance ratio (remaining disulfide)” value [2, 8] was 0% and the GSH abundance ratio [2, 8] was 91%. For the same molecule, the “GS—SG abundance ratio” value [2, 8] was 8.8%, the “linker disulfide cleaved (dissociated)” value [2, 8] was 100% and the ArSH abundance ratio ([4]; 25 min.) was 13%. For the same molecule, the “ArS—SG abundance ratio (1st ArS—SG column)” value ([4]; 25 min.) was 3.8%, the “ArS—SG abundance ratio (2nd ArS—SG column)” value ([4]; 25 min.) was 7.2% and the “ArS—SrA abundance ratio (remaining disulfide)” value ([4]; 25 min.) was 83%. The GSH abundance ratio ([4]; 25 min.) was 74%, the “GS—SG abundance ratio” value ([4]; 25 min.) was 19% and the ArSH abundance ratio ([4]; 100 min.) was 26%. The “ArS—SG abundance ratio (1st ArS—SG column)” value ([4]; 100 min.) was 11%, the “ArS—SG abundance ratio (2nd ArS—SG column)” value ([4]; 100 min.) was 20% and the “ArS—SrA abundance ratio (remaining disulfide)” value ([4]; 100 min.) was 62%. For the same molecule, the GSH abundance ratio ([4]; 100 min.) was 48%, the “GS—SG abundance ratio” value ([4]; 100 min.) was 32% and the ArSH abundance ratio ([4]; 1 day) was 12%. The “ArS—SG abundance ratio (1st ArS—SG column)” value ([4]; 1 day) was 31%, the “ArS—SG abundance ratio (2nd ArS—SG column)” value ([4]; 1 day) was 57% and the “ArS—SrA abundance ratio (remaining disulfide)” value ([4]; 1 day) was 57%. For the same molecule, the GSH abundance ratio ([4]; 1 day) was 11%, the “GS—SG abundance ratio” value ([4]; 1 day) was 32% and the ArSH abundance ratio ([5]; 100 min.) was 8.2%. For the same molecule, the “ArS—SG abundance ratio (1st ArS—SG column)” value ([5]; 100 min.) was 2%, the “ArS—SG abundance ratio (2nd ArS—SG column)” value ([5]; 100 min.) was 1.8% and the “ArS—SrA abundance ratio (remaining disulfide)” value ([5]; 100 min.) was 89%. The GSH abundance ratio ([5]; 100 min.) was 88%, the “GS—SG abundance ratio” value ([5]; 100 min.) was 10% and the ArSH abundance ratio ([5]; 1 day) was 3.3%. The “ArS—SG abundance ratio (1st ArS—SG column)” value ([5]; 1 day) was 24%, the “ArS—SG abundance ratio (2nd ArS—SG column)” value ([5]; 1 day) was 21% and the “ArS—SrA abundance ratio (remaining disulfide)” value ([5]; 1 day) was 84%. For the same molecule, the “GSH abundance ratio (GSH remained)” value ([5]; 1 day) was 18%, the GSH consumed ([5]; 1 day) was 82% and the “GS—SG abundance ratio” value ([5]; 1 day) was 62%. The linker disulfide cleaved ([5]; 1 day) was “about 16%”.
With O=C(O)c1c(F)cccc1SSc1cccc(F)c1C(=O)O [ArSSrA (F)] the ArSH abundance ratio [2, 6] was 92%, the “ArS—SG abundance ratio (1st ArS—SG column)” value [2, 6] was 0% and the “ArS—SG abundance ratio (2nd ArS—SG column)” value [2, 6] was 0%. For the same molecule, the “ArS—SrA abundance ratio (remaining disulfide)” value [2, 6] was 8%, the GSH abundance ratio [2, 6] was 96% and the “GS—SG abundance ratio” value [2, 6] was 3.8%. The “linker disulfide cleaved (dissociated)” value [2, 7] was “about 90%”, the ArSH abundance ratio [2, 8] was 100% and the “ArS—SG abundance ratio (1st ArS—SG column)” value [2, 8] was 0%. The “ArS—SG abundance ratio (2nd ArS—SG column)” value [2, 8] was 0%, the “ArS—SrA abundance ratio (remaining disulfide)” value [2, 8] was 0% and the GSH abundance ratio [2, 8] was 90%. The “GS—SG abundance ratio” value [2, 8] was 9.5%, the “linker disulfide cleaved (dissociated)” value [2, 8] was “all” and the ArSH abundance ratio ([3]; 100 min.) was 38%. For the same molecule, the “ArS—SG abundance ratio (1st ArS—SG column)” value ([3]; 100 min.) was 20%, the “ArS—SG abundance ratio (2nd ArS—SG column)” value ([3]; 100 min.) was 39% and the “ArS—SrA abundance ratio (remaining disulfide)” value ([3]; 100 min.) was 42%. The GSH abundance ratio ([3]; 100 min.) was 42%, the “GS—SG abundance ratio” value ([3]; 100 min.) was 9% and the ArSH abundance ratio ([3]; 1 day) was 36%. The “ArS—SG abundance ratio (1st ArS—SG column)” value ([3]; 1 day) was 21%, the “ArS—SG abundance ratio (2nd ArS—SG column)” value ([3]; 1 day) was 41% and the GSH abundance ratio ([3]; 1 day) was 8%. For the same molecule, the “GS—SG abundance ratio” value ([3]; 1 day) was 26%.
